Common to all, as to assay: growth of human tumour cells (NCI), 48 h
The test system of assay [1] is HCT-116 colon.
For assay [2], the system named is MDA-MB-435.
Assay [3] relates to CAKI-1 renal.
Assay [4] has as its system HT29 colon.
Assay [5] relates to OVCAR-8 ovarian.
The subject of assay [6] is SK-OV-3 ovarian.
The test system of assay [7] is HS 578T breast.
The test system of assay [8] is T-47D breast.
For assay [9], the system named is HCC-2998 colon.
The test system of assay [10] is PC-3 prostate.

Each structure is given as a SMILES string. Several values for one entry are separate records, joined by “and”; a condition that tells them apart may be missing. Identical values can stand only once.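 Growth conditions: 96-well plates. Treatment: test compound, 48 hours, 5 concentrations. Analysis: linear interpolation between bracketing concentrations; unreached endpoints set to highest concentration. GI50 marks 50% less growth. The concentration for full growth arrest is given as TGI.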 A value given as a limit tells only on which side of the number the result lay.

Turning to `COc1ccc(Nc2ncc(I)c(NCCCNC(=O)C3CCC3)n2)cc1`, the GI50 in assay [1] is 4.01 µM; in assay [2], 17.1 µM; in assay [3], 1.32 µM; in [4], 13.1 µM; in assay [5] it was 8.6 µM; in [6], 4.81 µM. Besides, the GI50 in assay [7] was 2.94 µM; in assay [8], 28.4 µM; in [9], 13.5 µM. The TGI in assay [1] was 20.6 µM; in [2], greater than 100 µM; in assay [3], 16 µM; in assay [4] it was 71 µM; in assay [5], greater than 100 µM; in assay [6] it was 25.5 µM. Also, the TGI in assay [7] is 13.2 µM; in [8], 79 µM; in assay [9], 67.3 µM.
For the compound `COc1ccc2c(n1)Sc1nc3ccccc3nc1N2`, the TGI in assay [1] is greater than 100 µM; in [2], greater than 100 µM; in assay [3], greater than 100 µM; in assay [4], greater than 100 µM; in assay [5], 57 µM; in assay [10], greater than 100 µM. In addition, the TGI in [6], in assay [7] and in assay [8] was greater than 100 µM throughout.
As to `CCCCCCCCCCCCCCCCn1cc[n+](C)c1`, the GI50 in assay [1] was 0.267 µM; in [2], 0.358 µM; in [3] it was 0.385 µM; in assay [4], 0.291 µM; in assay [10] it was 0.183 µM; in assay [6], 0.941 µM. In addition, the results for the GI50 in assay [7], in [8] and in assay [9] were 0.383 µM, 0.398 µM and 0.277 µM, respectively. Further, the TGI in [1] is 1.22 µM; in assay [2] it was 1.49 µM; in assay [3], 2.33 µM; in assay [4], 1.25 µM; in assay [10] it was 0.58 µM; in assay [6], 3.17 µM. The TGI in [7] is 1.75 µM; in [9], 1.13 µM.
In the case of `CCCCCCOC(=O)CC1=C(C)/C(=C/c2[nH]c(-c3ccc[nH]3)cc2OC)N=C1C`, the GI50 in assay [1] was 0.0311 µM; in assay [2], 0.0463 µM; in assay [3], 0.0706 µM; in assay [4], 0.0331 µM; in [5], 0.238 µM; in [10] it was 0.0487 µM. Further, the GI50 in assay [6] is 0.279 µM; in [7], 0.133 µM; in assay [8], 0.0367 µM. The TGI in [1] turned out to be 1.05 µM; in assay [2], 1.12 µM; in assay [3] it was 1.12 µM; in assay [4], 1.05 µM; in assay [5], 1.21 µM; in assay [10], 1.78 µM. Further, the TGI in assay [6] worked out at 1.24 µM; in assay [7] it was 1.17 µM; in assay [8] it was 0.545 µM.
Regarding `COc1ccc(O)c(/C=N\Nc2ccccc2)c1`, the TGI in [1] is greater than 100 µM; in assay [2], 43.8 µM; in assay [4] it was 29.9 µM; in [5], greater than 100 µM; in [10], greater than 100 µM; in assay [6], greater than 100 µM. Also, the figures for the TGI in [7], in assay [8] and in assay [9] were greater than 100 µM, greater than 100 µM and 5.33 µM, respectively.
For `CCOc1ccc(-c2nc3ccc(-c4nc5ccc(N6CCN(C)CC6)cc5[nH]4)cc3[nH]2)cc1`, the GI50 in [1] was 0.0397 µM; in [2], 0.69 µM; in assay [3], 0.555 µM; in assay [5], 0.162 µM and 0.315 µM; in assay [10], 0.352 µM; in [6], 0.379 µM and 0.478 µM. Moreover, the GI50 was 0.476 µM in [7]; 0.299 µM in [8]; 0.267 µM and 0.196 µM in [9]. Besides, the TGI in assay [1] is 0.26 µM; in assay [2], 2.8 µM; in [3], 2.55 µM; in assay [5], 0.54 µM and 1.25 µM; in [10], 6.19 µM; in assay [6], 1.84 µM and 1.86 µM. The TGI in [7] is 2.52 µM; in [8], 2.2 µM; in assay [9], 0.543 µM and 0.415 µM.
Turning to `Cc1cccc2c(=O)c3c(sc12)c(NCCCNCCO)nc1ccccc13`, the GI50 is 1.51 µM in [1]; 1.74 µM in assay [2]; 1.31 µM in assay [3]; 1.57 µM in assay [4]; 1.71 µM in [5]; 1.29 µM in [10]. Also, the GI50 in [7] was 1.63 µM; in assay [8], 1.57 µM; in assay [9], 1.58 µM. Besides, the TGI amounted to 3.03 µM in [1]; 3.18 µM in assay [2]; 2.67 µM in [3]; 3.2 µM in assay [4]; 3.37 µM in assay [5]; 2.75 µM in [10]. Further, the TGI in assay [7] turned out to be 3.62 µM; in [8], 3.5 µM; in assay [9], 3.06 µM.
`COC(=O)c1c2c(c(C)[n+]([O-])c1C)C(=O)C(NCc1ccccc1)=CC2=O`: the GI50 in assay [1] was 2.47 µM; in [2], 1.81 µM; in [3] it was 2.84 µM; in [4], 1.97 µM; in assay [5], 2.32 µM; in [6], 2.81 µM. The figures for the GI50 in assay [7], in assay [8] and in [9] were 7 µM, 1.88 µM and 2.8 µM, respectively. For the same compound, the TGI worked out at 9.48 µM in [1]; 3.3 µM in assay [2]; 14.3 µM in assay [3]; 10.2 µM in [4]; 8.73 µM in assay [5]; 9.63 µM in assay [6]. Besides, the TGI was 82.4 µM in assay [7], 5.35 µM in assay [8] and 7.98 µM in assay [9].
Consider `O=S(O)O.O=S(O)O.[Co].[NH2-].[NH2-].[NH2-].[NH2-]`, for which the GI50 in assay [1], in assay [2], in assay [3], in [4], in assay [5] and in assay [10] was greater than 100 µM each time. In addition, the GI50 in assay [6], in assay [7] and in assay [8] was greater than 100 µM in each case. Further, the TGI in assay [1], in [2], in assay [3], in [4], in assay [5] and in [10] was greater than 100 µM in each case. Also, the TGI in assay [6], in [7] and in assay [8] was greater than 100 µM each time.
